From patent publication US8501813B2, “γ-secretase inhibitor” (Kabushiki Kaisha Yakult Honsha, priority 2007, dated 2013)
Like-named read-outs stand apart in the source and are kept apart here.

Biological target: γ-secretase (Homo sapiens, UniProt P49768)
Assay: Aβ secretion by C99 cells (HEK293 stably expressing APP-C99), γ-secretase inhibitory effect, Aβ ELISA of culture supernatant
Assay type: cell-based
Details: for activity at 0.3 µM / activity at 1 µM / activity at 3 µM / activity at 10 µM / activity at 0.03 µM / activity at 0.1 µM: HEK293, 24 h; for activity at 0.3 µM: exposure 0.3 μmol/L; for activity at 1 µM: exposure 1 μmol/L; for activity at 3 µM: exposure 3 μmol/L; for activity at 10 µM: exposure 10 μmol/L; for activity at 0.03 µM: exposure 0.03 μmol/L; for activity at 0.1 µM: exposure 0.1 μmol/L; for inhibition at 0.3 µM / inhibition at 10 µM: HEK293, read-out: Aβ40 inhibitory rate (in terms of the inhibitory rate, from secretion rate); for inhibition at 0.3 µM: exposure concentration 0.3 μM; for inhibition at 10 µM: exposure concentration 10 μM
Excerpt: HEK293 cells (ATCC) were transfected with APP C99 pcDNA3.1 (the nucleotide sequence of its coding region is shown in SEQ ID NO: 1) (J. Biol. Chem., 2003, 278, 49448-49458). Cell strains (C99 cells) confirmed to stably express APP-C99 (artificial APP fragment that originally lacked a polypeptide portion to be cleaved by α- or β-secretase at the first stage in the two-stage reaction of Aβ production from APP) were used to study the γ-secretase inhibitory effects of four test substances (TLVM-5, TLVM-7, TLVM-8, and TLVM-9) in vitro.
In the present test, a medium used for the C99 cells was 500 mL of a Dulbecco's Modified Eagle's Medium (DMEM, Sigma-Aldrich Corp.) supplemented with 55 ml of fetal bovine serum (Biosource), 5.5 ml of MEM non-essential amino acids (Gibco), and 5.5 ml of penicillin/streptomycin (Gibco).
The C99 cells were suspended at a concentration of 5×10^4 cells/ml in the medium. The suspension was added at a concentration of 1 ml (5×10^4 cells)/well to a 24-well collagen plate (Akita Sumitomo Bakelite Co., Ltd.) and cultured for 3 days. Then, the medium in the wells was removed, and the wells were washed with a medium (1 ml/well). The medium was removed, and a fresh medium was then added thereto at a concentration of 0.4 ml/well. The cells were exposed to the test substances and positive controls and incubated for 24 hours, and the culture supernatants were collected. The positive controls used were L-685,458 (CALBIOCHEM) and Boc-Leu-Val-Met-Leu-OMe (hereinafter, referred to as LVML-1) disclosed in Example 1 of Patent Document 1 (WO03/091278). The exposure concentrations were set to four concentrations, 0.3, 1, 3, and 10 μmol/L, for all the test substances and the positive controls. The concentrations of Aβ (1-40) and Aβ (1-42) in the culture supernatants were measured using Human Amyloid β (1-40) (N) Assay Kit (L)-IBL and Human Amyloid β (1-42) (N) Assay Kit (L)-IBL (Immuno-Biological Laboratories, Co., Ltd.). The amounts of Aβ (1-40) and Aβ (1-42) secreted were calculated by subtracting the concentrations of Aβ (1-40) and Aβ (1-42) originally contained in the medium before the C99 cell inoculation, from the measured concentrations thereof, respectively. Moreover, when the Aβ secretion rate of a negative control (5% DMSO-containing medium, resulting in 1% DMSO at the final concentration) is defined as 100%, Aβ secretion rates at each concentration of the test substances and the positive controls were calculated.
The TLVM-5, TLVM-7, TLVM-8, and TLVM-9 confirmed in Example 8 to have strong inhibitory activities against γ-secretase activities were subjected to an additional experiment at low concentrations (exposure concentrations were set to three concentrations, […], for the test substances and to four concentrations, 0.1, 0.3, 1, and 3 μmol/L, for the positive control).
Moreover, Aβ secretion rates at two concentrations of the test substance that bracket the concentration at which Aβ secretion was inhibited by 50% (IC50) were used to calculate IC50 according to the following equation: IC50:10^[LOG(A/B)*(50−C)/(D−C)+LOG(B)],wherein
A: of the two points that bracket 50% inhibition, the higher concentration of the test substance,
B: of the two points that bracket 50% inhibition, the lower concentration of the test substance,
C: secretion rate (%) at the concentration B, and
D: secretion rate (%) at the concentration A.

[1] = Example 8, 24 h, read-out: Aβ [(1-40) + (1-42)] secretion rate of C99 cells
[2] = Example 8, 24 h, read-out: Aβ (1-40) secretion rate of C99 cells
[3] = Example 9 (low concentrations), read-out: Aβ (1-40) secretion rate of C99 cells
[4] = Example 9, read-out: Aβ (1-42) secretion rate of C99 cells
[5] = Example 9, read-out: Aβ [(1-40) + (1-42)] secretion rate of C99 cells
[6] = Example 9, read-out: Aβ (1-40) secretion rate of C99 cells
[7] = Example 8, 24 h, negative control = 100%, read-out: Aβ (1-40) secretion rate of C99 cells
[8] = Example 8, 24 h, read-out: Aβ (1-42) secretion rate of C99 cells

Row | SMILES | activity at 0.3 µM [1] [%] | activity at 1 µM [2] [%] | activity at 1 µM [1] [%] | activity at 3 µM [2] [%] | activity at 3 µM [1] [%] | activity at 10 µM [2] [%] | activity at 10 µM [1] [%] | activity at 0.03 µM [3] [%] | activity at 0.03 µM [4] [%] | activity at 0.03 µM [5] [%] | activity at 0.1 µM [6] [%] | activity at 0.1 µM [4] [%] | activity at 0.1 µM [5] [%] | activity at 0.3 µM [6] [%] | activity at 0.3 µM [4] [%] | activity at 0.3 µM [5] [%] | inhibition at 0.3 µM [%] | inhibition at 10 µM [%] | activity at 0.3 µM [8] [%] | activity at 1 µM [8] [%] | further results
1 | CSCCC(NC(=O)C(NC(=O)C(CC(C)C)CC(O)C(NC(=O)OC(C)(C)C)C(C)O)C(C)C)C(=O)NCc1ccccc1 [TLVM-5, [5S-(tert-butoxycarbonylamino)-4R,6R-dihydroxy-2R-(2-methylpropyl)heptanoyl]-L-valyl-L-methionine benzylamide] | 14 | 5 | 8 | 4 | 7 | ≤ 3 | 6 | 100 | 131 | 101 | 39 | 74 | 40 | 15 | 43 | 16 | ≥ 76 | ≥ 97 |  |  | 
2 | CCCCNC(=O)C(CCSC)NC(=O)C(NC(=O)C(CC(C)C)CC(O)C(NC(=O)OC(C)(C)C)C(C)O)C(C)C [TLVM-7, [5S-(tert-butoxycarbonylamino)-4R,6R-dihydroxy-2R-(2-methylpropyl)heptanoyl]-L-valyl-L-methionine n-butylamide] | 23 | 8 | 10 | 1 | 4 | ≤ 3 | 2 | 124 | 156 | 126 | 42 | 94 | 44 | 13 | 33 | 14 | ≥ 76 | ≥ 97 | 15 | 55 | activity at 0.3 µM [7]: ≤ 24%; activity at 3 µM [8]: 67%; activity at 10 µM [8]: 0%
3 | CSCCC(NC(=O)C(NC(=O)C(CC(C)C)CC(O)C(NC(=O)OC(C)(C)C)C(C)O)C(C)C)C(=O)NC(C)c1ccccc1 [TLVM-8, [5S-(tert-butoxycarbonylamino)-4R,6R-dihydroxy-2R-(2-methylpropyl)heptanoyl]-L-valyl-L-methionine (S)-α-methylbenzylamide] | 7 | 1 | 1 | 2 | 5 |  | 1 | 53 | 71 | 54 | 16 | 52 | 17 | 7 | 33 | 8 | ≥ 76 | ≥ 97 | 7 | 11 | activity at 3 µM [8]: 61%; activity at 10 µM [8]: 0%
4 | CSCCC(NC(=O)C(NC(=O)C(CC(C)C)CC(O)C(NC(=O)OC(C)(C)C)C(C)O)C(C)C)C(=O)NCc1ccc(F)cc1 [TLVM-9, [5S-(tert-butoxycarbonylamino)-4R,6R-dihydroxy-2R-(2-methylpropyl)heptanoyl]-L-valyl-L-methionine 4-fluorobenzylamide] | 15 | 8 | 8 | 5 | 7 | ≤ 3 | 3 | 94 | 97 | 94 | 32 | 67 | 33 | 17 | 49 | 18 | ≥ 76 | ≥ 97 | 2 | 11 | activity at 0.3 µM [7]: ≤ 24%; activity at 3 µM [8]: 37%; activity at 10 µM [8]: 0%
